Assay results taken from ChEMBL document CHEMBL5465560, “Selectivity Literature for EUbOPEN Chemogenomic Library” (2024).

Tests used:
[1] = target: T1, Mitogen-activated protein kinase kinase kinase 12 (Homo sapiens) (UniProt Q12852); conditions: at 10 µM
T1 sequence (whole entry): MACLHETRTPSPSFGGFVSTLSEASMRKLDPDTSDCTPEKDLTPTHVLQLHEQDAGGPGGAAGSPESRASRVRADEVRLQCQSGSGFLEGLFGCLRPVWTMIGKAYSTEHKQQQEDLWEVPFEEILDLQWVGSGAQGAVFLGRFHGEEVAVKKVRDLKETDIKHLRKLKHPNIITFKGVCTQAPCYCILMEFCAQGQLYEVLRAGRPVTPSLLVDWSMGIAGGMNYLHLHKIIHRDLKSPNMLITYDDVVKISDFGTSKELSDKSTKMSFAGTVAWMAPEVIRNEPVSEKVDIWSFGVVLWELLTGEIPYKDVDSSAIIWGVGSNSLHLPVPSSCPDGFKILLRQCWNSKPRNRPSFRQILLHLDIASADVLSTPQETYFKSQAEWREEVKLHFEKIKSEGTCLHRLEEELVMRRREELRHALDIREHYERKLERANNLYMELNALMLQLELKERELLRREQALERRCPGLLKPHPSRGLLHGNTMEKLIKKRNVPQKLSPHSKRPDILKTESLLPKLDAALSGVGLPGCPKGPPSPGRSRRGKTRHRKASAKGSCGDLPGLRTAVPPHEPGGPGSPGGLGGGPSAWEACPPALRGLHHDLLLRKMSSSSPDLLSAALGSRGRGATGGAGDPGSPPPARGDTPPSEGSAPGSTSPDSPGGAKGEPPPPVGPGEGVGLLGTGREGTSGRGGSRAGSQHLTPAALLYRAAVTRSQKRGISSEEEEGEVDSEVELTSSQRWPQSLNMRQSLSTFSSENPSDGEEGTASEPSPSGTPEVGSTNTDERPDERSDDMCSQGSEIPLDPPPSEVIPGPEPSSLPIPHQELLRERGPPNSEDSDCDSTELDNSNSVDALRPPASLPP

[2] = target: Ribosomal protein S6 kinase alpha-6 (Homo sapiens, UniProt Q9UK32); test: Selectivity interaction (KinomeScan (DiscoverX)) EUB0000655a RPS6KA6; conditions: at 10 µM
[3] = target: Tyrosine-protein kinase FRK (Homo sapiens) (UniProt P42685); test: Selectivity interaction (KinomeScan (DiscoverX)) EUB0000666a FRK; conditions: at 10 µM
[4] = target: T2, Serine/threonine-protein kinase Sgk3 (Homo sapiens) (UniProt Q96BR1); test: Selectivity interaction (KinomeScan (DiscoverX)) EUB0000666a SGK3; conditions: at 10 µM
T2 sequence (whole entry): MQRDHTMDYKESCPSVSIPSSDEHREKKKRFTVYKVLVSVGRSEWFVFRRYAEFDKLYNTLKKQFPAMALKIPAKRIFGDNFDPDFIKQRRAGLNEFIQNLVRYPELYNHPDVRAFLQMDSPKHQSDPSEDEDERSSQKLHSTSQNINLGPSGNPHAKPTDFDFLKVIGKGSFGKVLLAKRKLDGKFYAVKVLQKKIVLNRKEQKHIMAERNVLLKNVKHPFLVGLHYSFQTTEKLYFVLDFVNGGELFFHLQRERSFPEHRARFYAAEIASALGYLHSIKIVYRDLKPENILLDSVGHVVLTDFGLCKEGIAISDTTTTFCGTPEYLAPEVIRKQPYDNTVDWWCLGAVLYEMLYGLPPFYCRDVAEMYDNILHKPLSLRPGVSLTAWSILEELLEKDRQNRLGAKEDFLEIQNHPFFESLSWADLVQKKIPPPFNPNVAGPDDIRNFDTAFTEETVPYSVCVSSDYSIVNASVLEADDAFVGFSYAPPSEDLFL

[5] = target: Phosphatidylinositol 4-kinase type 2-beta (Homo sapiens) (UniProt Q8TCG2); test: Selectivity interaction (Adapta Assay) EUB0001632a PI4K2B; conditions: at 10 µM
[6] = target: Tyrosine-protein kinase Srms (Homo sapiens) (UniProt Q9H3Y6); test: Selectivity interaction (Kinase panel (Z-LYTE Assay)) EUB0001632a SRMS; conditions: at 10 µM
[7] = target: Tyrosine-protein kinase Lck (Homo sapiens, UniProt P06239); test: Selectivity interaction (Kinase panel (Z-LYTE Assay)) EUB0001632a LCK; conditions: at 10 µM
[8] = target: Serine/threonine-protein kinase tousled-like 2 (Homo sapiens) (UniProt Q86UE8); test: Selectivity interaction (ActivX KiNativ screen (kinase selectivity in THP-1 cell lysates)) EUB0000639a TLK2; format: subcellular; conditions: lysate
[9] = target: Dual specificity mitogen-activated protein kinase kinase 1 (Homo sapiens, UniProt Q02750); test: Selectivity interaction (ActivX KiNativ screen (kinase selectivity in THP-1 cell lysates)) EUB0000639a MAP2K1; format: subcellular; conditions: lysate, at 1 µM
[10] = target: T3, Activin receptor type-1 (Homo sapiens) (UniProt Q04771); test: Selectivity interaction (KinomeScan (DiscoverX)) EUB0000595a ACVR1; conditions: at 10 µM
T3 sequence (whole entry): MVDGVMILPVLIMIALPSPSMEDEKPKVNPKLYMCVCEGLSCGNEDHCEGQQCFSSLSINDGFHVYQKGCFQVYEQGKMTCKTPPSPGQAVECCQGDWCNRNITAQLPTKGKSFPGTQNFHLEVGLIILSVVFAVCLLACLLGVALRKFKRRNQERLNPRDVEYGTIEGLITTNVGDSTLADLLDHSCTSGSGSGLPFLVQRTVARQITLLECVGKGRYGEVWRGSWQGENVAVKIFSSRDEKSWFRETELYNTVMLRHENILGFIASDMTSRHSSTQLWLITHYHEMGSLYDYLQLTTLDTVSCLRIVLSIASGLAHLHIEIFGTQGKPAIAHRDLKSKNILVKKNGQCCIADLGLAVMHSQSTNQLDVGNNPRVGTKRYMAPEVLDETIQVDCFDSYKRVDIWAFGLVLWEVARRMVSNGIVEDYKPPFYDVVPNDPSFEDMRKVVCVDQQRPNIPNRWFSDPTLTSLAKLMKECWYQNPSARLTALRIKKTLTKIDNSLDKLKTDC

[11] = target: Cyclin-dependent kinase 9 (Homo sapiens, UniProt P50750); test: Selectivity interaction (KinomeScan (DiscoverX)) EUB0000618a CDK9; conditions: at 10 µM
Cyclin-dependent kinase 9, sequence (P50750 whole entry): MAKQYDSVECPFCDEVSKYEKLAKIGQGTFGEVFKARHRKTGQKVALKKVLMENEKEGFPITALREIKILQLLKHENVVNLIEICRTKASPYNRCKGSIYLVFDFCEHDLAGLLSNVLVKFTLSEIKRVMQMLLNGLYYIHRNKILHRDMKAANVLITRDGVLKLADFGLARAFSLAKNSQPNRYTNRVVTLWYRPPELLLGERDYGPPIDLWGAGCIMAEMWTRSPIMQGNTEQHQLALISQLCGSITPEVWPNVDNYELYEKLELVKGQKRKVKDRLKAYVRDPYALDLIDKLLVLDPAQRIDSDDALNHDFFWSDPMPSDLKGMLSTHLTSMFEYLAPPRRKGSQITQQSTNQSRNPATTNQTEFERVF

Serine/threonine-protein kinase tousled-like 2 (Homo sapiens), sequence (Q86UE8 whole entry, looked up): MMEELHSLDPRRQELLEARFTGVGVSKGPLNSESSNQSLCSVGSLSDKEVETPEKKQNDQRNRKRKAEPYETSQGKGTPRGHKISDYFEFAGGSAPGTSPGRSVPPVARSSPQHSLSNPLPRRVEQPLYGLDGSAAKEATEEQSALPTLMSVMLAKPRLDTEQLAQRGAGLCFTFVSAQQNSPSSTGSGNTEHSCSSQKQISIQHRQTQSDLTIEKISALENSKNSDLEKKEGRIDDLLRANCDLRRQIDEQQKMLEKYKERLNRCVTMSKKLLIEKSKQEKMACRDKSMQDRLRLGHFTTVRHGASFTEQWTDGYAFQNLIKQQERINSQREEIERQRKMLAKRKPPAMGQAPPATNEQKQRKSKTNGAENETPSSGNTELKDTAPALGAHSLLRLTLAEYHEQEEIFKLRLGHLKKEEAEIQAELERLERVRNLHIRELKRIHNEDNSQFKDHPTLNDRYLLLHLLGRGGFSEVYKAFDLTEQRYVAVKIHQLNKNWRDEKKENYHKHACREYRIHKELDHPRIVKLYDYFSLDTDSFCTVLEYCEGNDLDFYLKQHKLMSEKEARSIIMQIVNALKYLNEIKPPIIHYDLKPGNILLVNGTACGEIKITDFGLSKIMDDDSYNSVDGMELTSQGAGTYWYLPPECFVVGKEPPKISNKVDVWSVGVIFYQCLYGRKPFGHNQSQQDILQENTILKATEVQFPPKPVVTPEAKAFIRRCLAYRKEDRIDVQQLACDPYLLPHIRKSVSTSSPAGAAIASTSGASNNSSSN
Tyrosine-protein kinase Srms (Homo sapiens), sequence (Q9H3Y6 whole entry): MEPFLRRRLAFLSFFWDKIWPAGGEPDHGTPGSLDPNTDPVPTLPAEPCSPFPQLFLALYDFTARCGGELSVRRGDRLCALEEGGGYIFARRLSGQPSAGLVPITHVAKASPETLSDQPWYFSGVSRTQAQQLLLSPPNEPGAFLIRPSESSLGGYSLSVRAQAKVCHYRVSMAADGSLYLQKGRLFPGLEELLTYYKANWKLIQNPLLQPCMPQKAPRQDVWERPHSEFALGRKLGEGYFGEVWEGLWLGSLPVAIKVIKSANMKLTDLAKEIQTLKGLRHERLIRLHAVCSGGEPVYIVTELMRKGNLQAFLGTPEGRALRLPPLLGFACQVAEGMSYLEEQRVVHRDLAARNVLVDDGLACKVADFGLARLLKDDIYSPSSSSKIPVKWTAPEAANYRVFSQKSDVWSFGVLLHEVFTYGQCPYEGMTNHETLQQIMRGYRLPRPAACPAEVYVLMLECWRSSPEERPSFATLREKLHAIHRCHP
Dual specificity mitogen-activated protein kinase kinase 1, sequence (Q02750 whole entry): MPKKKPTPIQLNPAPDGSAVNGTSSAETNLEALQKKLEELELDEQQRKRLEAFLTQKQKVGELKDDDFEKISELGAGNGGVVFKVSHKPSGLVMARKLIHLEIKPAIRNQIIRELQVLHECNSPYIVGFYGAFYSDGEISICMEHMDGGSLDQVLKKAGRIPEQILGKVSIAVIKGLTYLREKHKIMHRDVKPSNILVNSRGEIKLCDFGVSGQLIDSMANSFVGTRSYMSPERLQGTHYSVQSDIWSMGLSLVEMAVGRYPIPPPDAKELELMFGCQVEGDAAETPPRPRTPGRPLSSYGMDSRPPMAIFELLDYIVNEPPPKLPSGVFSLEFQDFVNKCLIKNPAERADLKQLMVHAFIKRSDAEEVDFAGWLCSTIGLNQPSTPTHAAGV
Phosphatidylinositol 4-kinase type 2-beta (Homo sapiens), sequence (Q8TCG2 whole entry): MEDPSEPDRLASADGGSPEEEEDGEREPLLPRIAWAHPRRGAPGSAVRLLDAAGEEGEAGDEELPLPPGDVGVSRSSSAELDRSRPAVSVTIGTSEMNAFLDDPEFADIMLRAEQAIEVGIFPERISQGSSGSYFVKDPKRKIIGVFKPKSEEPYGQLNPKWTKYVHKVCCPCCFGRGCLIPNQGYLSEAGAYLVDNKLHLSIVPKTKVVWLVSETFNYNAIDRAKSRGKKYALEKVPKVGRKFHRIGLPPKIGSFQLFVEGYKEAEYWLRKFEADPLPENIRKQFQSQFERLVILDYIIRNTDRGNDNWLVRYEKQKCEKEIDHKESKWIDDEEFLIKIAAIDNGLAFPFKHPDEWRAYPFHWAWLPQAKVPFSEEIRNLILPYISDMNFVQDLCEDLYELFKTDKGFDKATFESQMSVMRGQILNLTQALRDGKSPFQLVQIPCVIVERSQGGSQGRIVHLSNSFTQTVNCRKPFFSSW
Tyrosine-protein kinase FRK (Homo sapiens), sequence (P42685 whole entry): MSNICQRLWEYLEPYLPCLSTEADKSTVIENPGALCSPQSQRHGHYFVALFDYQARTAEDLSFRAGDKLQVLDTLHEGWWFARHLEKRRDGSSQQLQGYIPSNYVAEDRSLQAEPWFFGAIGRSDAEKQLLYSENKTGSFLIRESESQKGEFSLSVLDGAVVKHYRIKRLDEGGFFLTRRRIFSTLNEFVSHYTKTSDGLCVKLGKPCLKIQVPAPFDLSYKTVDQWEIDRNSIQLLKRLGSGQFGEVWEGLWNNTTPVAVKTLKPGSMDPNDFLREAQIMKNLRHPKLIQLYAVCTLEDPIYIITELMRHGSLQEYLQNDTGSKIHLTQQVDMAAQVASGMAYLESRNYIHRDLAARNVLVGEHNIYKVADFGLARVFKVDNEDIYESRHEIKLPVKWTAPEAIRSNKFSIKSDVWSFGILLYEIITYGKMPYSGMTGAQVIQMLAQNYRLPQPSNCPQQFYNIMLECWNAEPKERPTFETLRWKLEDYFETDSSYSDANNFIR
Tyrosine-protein kinase Lck, sequence (P06239 2-509 limits assumed): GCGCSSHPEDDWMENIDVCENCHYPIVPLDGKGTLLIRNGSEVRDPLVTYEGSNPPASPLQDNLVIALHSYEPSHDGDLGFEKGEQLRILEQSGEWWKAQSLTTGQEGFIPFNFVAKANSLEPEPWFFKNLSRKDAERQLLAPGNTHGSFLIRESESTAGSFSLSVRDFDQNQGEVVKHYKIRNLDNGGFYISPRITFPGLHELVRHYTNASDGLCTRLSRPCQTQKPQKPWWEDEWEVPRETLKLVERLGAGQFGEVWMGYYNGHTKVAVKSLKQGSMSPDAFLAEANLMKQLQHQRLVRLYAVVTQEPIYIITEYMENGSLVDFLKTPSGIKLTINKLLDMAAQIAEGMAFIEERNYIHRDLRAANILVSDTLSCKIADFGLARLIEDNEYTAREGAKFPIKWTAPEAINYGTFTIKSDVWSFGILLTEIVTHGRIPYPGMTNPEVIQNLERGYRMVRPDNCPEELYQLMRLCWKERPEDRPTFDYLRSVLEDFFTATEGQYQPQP
Ribosomal protein S6 kinase alpha-6, sequence (Q9UK32 whole entry): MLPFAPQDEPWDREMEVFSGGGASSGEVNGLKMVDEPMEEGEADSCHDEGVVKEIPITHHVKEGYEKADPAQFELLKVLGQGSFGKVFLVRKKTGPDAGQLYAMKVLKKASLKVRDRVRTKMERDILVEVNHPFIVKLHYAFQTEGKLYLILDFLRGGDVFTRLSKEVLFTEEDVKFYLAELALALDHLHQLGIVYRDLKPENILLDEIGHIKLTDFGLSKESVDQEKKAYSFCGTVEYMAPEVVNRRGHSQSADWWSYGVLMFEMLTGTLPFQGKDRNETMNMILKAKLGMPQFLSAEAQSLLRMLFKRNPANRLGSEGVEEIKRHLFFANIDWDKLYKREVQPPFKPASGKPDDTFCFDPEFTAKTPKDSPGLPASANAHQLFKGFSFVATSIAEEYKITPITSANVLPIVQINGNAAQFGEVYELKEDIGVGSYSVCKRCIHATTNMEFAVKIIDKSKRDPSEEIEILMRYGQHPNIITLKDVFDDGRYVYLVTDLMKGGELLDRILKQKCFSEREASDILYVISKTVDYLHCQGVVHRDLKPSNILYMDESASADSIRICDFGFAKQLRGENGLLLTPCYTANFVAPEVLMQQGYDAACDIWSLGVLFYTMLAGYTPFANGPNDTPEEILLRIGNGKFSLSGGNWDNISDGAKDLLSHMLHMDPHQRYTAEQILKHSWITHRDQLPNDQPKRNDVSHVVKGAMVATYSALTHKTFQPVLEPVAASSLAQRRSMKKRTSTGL

Compound `CCN(CC)CCCCNc1ncc2cc(-c3cc(OC)cc(OC)c3)c(NC(=O)NC(C)(C)C)nc2n1` has a % of control [1] of 100%.
`CN(C)CCOc1ccc(-c2nc(-c3ccncc3)c(-c3ccc4c(c3)CC/C4=N\O)[nH]2)cc1` was tested, and the % of control [2] was 82%.
`O=C(NOC[C@H](O)CO)c1ccc(F)c(F)c1Nc1ccc(I)cc1F` showed a % of control [3] of 60% and a % of control [4] of 89%.
`Cn1cc(-n2cnc3c(NCc4nc5cc(Cl)c(Cl)cc5[nH]4)nc(N4CCOCC4)nc32)cn1` was tested, and the % of inhibition [5] was -1.89%, the % of control [6] was -3.87% and the % of control [7] was 11.9%.
`CC[C@@H]1[C@H](F)C(=O)N[C@@H]1COc1nccc2cc(C(N)=O)c(OC)cc12` [ZIMLOVISERTIB] was tested, and the % of inhibition ([8]; at 0.01 µM) was 16.6%, the % of inhibition ([8]; at 0.04 µM) was 2.6% and the % of inhibition ([8]; at 0.2 µM) was 18.7%. For the same compound, the % of inhibition ([8]; at 1 µM) was 46.3%, the % of inhibition ([8]; at 5 µM) was 73.5% and the % of inhibition [9] was 0.2%.
In the case of `COCC(=O)NC/C=C/c1ccc2ncnc(Nc3ccc(Oc4ccc(C)nc4)c(C)c3)c2c1` [CP-724714], the % of control [10] is reported as 90%.
`O[C@H]1CC[C@H](Nc2ncc3nc(Nc4c(F)cc(F)cc4F)n([C@H]4CCOC4)c3n2)CC1` gave a % of control [11] of 78%.
